Measurements: patent publication US12673961B2 (Agios Pharmaceuticals, Inc., priority 2022, dated 2026)
Read-outs that look alike come from different tables or passages of the source.

Target: T1, human PAH with the R408W mutation (Homo sapiens, UniProt P00439, R408W)
T1 construct: expressed in transfected cells
T1 sequence (P00439 1-452 R408W): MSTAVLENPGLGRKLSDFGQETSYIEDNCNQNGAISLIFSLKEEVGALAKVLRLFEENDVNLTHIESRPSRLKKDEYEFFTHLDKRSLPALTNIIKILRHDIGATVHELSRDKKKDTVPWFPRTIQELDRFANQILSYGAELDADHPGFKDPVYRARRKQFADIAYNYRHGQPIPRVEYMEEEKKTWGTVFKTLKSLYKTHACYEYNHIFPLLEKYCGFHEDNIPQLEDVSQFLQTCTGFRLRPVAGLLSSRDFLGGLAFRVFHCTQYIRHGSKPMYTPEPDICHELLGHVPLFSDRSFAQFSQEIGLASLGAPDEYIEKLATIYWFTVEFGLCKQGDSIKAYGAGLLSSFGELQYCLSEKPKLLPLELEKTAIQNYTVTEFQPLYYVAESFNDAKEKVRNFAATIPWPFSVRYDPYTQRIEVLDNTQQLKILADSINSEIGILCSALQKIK
Experiment: Cell Based Phenylalanine Flux Assay;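 note: Ten-point dose curve from 2-fold serial dilutions, run in duplicate at 0.5% DMSO final, tracer step used 20 µM sepiapterin and 800 µM labeled phenylalanine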
Settings: average where tested multiple times, read-out: AC50

[1] = A375 cells expressing R408W PAH, 24 hrs with compound, then 20 μM sepiapterin and 800 μM 13C9,15N-Phenylalanine for 4 hours, 13C-Tyrosine in media by LC-MS
[2] = A375 cells expressing human R408W PAH, 24 hrs compound incubation, 13C-Tyrosine by LC-MS
[3] = A375 cells expressing human R408W PAH, 24 hrs with compound, then sepiapterin and 13C9,15N-Phenylalanine for 4 hours, 13C-Tyrosine by LC-MS

Row | AC50 [2] | SMILES | AC50 [1] | further results
1 | – | O=C(c1cnn(-c2ccccn2)c1Cl)N1CCc2[nH]cnc2[C@@H]1c1cc2ccccn2n1 (single isomer, unassigned) | > 5000 nM | –
2 | – | FC(F)c1cccn2nc([C@H]3c4nc[nH]c4CCN3c3nnc(-c4cccnc4)o3)cc12 (single isomer, unassigned) | > 5000 nM | –
3 | – | Cc1c(-c2ncc(C(=O)N3CCc4[nH]cnc4[C@H]3c3cc4ccccn4n3)o2)cnn1C (single isomer, unassigned) | 1000 to 5000 nM | –
4 | – | Cc1n[nH]cc1-c1nnc(C(=O)N2CCc3[nH]cnc3[C@H]2c2cc3c(C)cccn3n2)o1 (single isomer, unassigned) | 1000 to 5000 nM | –
5 | – | FC1(F)CC(c2nnc(N3CCc4[nH]cnc4[C@H]3c3cc4c(C(F)(F)F)cccn4n3)o2)C1 (single isomer, unassigned) | 1000 to 5000 nM | –
6 | – | O=C(c1nnc(C2CC(F)(F)C2)o1)N1CCc2[nH]cnc2[C@H]1c1cc2ccccn2n1 (single isomer, unassigned) | 1000 to 5000 nM | –
7 | – | CC(C)(F)c1nnc(N2CCc3[nH]cnc3[C@H]2c2cc3c(C4CC4)cccn3n2)o1 (single isomer, unassigned) | > 5000 nM | –
8 | – | CC(C)c1cccn2nc([C@@H]3c4nc[nH]c4CCN3c3nnc(-c4ncccn4)o3)cc12 (single isomer, unassigned) | 1000 to 5000 nM | –
9 | – | Clc1cccn2nc([C@@H]3c4nc[nH]c4CCN3c3nnc(-c4ncccn4)o3)cc12 (single isomer, unassigned) | 1000 to 5000 nM | –
10 | – | O=C(c1nnc(-c2ccc(C(F)(F)F)cn2)o1)N1CCc2[nH]cnc2[C@H]1c1cc2ccccn2n1 (single isomer, unassigned) | 1000 to 5000 nM | –
11 | – | O=C(c1cnc(-c2ncccn2)o1)N1CCc2[nH]cnc2[C@H]1c1cc2ccccn2n1 (single isomer, unassigned) | 1000 to 5000 nM | –
12 | – | Cc1cccc2cc([C@@H]3c4nc[nH]c4CCN3c3nnc(C4CCC4)o3)nn12 (single isomer, unassigned) | 1000 to 5000 nM | –
13 | – | Cc1cccn2nc([C@@H]3c4nc[nH]c4CCN3c3cccc(F)n3)cc12 (single isomer, unassigned) | 1000 to 5000 nM | –
14 | – | FC(F)(F)c1cccn2nc([C@@H]3c4nc[nH]c4CCN3c3nnc(-c4cccnc4)o3)cc12 (single isomer, unassigned) | 1000 to 5000 nM | –
15 | – | Fc1cccn2nc([C@@H]3c4nc[nH]c4CCN3c3nnc(-c4cccnn4)o3)cc12 (single isomer, unassigned) | 1000 to 5000 nM | –
16 | – | Fc1cccnc1-c1nnc(N2CCc3[nH]cnc3[C@H]2c2cc3c(C(F)(F)F)cccn3n2)o1 (single isomer, unassigned) | 1000 to 5000 nM | –
17 | – | c1cc(C2CC2)c2cc([C@@H]3c4nc[nH]c4CCN3c3nnc(-c4ccncn4)o3)nn2c1 (single isomer, unassigned) | 1000 to 5000 nM | –
18 | – | O=C(C1CC1)N1CCc2[nH]cnc2[C@H]1c1cc2c(F)cccn2n1 (single isomer, unassigned) | > 5000 nM | –
19 | – | Cn1cncc1-c1nnc(C(=O)N2CCc3[nH]cnc3C2c2cc3c(C(F)(F)F)cccn3n2)o1 (single isomer, unassigned) [4S enantiomer of 2-(1-methyl-1H-imidazol-5-yl)-5-14-[4-(trif] | 1000 to 5000 nM | –

Row | AC50 [2] | SMILES | AC50 [1] | further results
20 | – | FC1(F)CC(c2nnc(N3CCc4[nH]cnc4C3c3cc4ccccn4n3)o2)C1 (single isomer, unassigned) [4S enantiomer of 2-(3,3-difluorocyclobutyl)-5-[4-{pyrazolo{1] | > 5000 nM | –
21 | – | FC(F)(F)c1ccc(N2CCc3[nH]cnc3C2c2cc3cccc(C(F)(F)F)n3n2)nc1 (single isomer, unassigned) [4S enantiomer of 5-(trifluoromethyl)-2-[4-[7-(trifluoromethy] | 1000 to 5000 nM | –
22 | 500 to 1000 nM | N#Cc1ncoc1C(=O)N1CCc2[nH]cnc2[C@H]1c1cc2ccccn2n1 (single isomer, unassigned) [Example 640] | – | –
23 | > 5000 nM | N#Cc1ncoc1C(=O)N1CCc2[nH]cnc2[C@@H]1c1cc2ccccn2n1 (single isomer, unassigned) [Example 641] | – | –
24 | > 5000 nM | Cn1ccc(-c2nnc(C(=O)N3CCc4[nH]cnc4[C@@H]3c3cc4c(C(F)(F)F)cccn4n3)o2)n1 (single isomer, unassigned) [Example 837] | – | –
25 | – | Fc1cccc(F)c1-c1nnc(N2CCc3[nH]cnc3[C@H]2c2cc3ccccn3n2)o1 (single isomer, unassigned) [Example 1843] | – | AC50 [3]: < 500 nM
26 | 1000 to 5000 nM | Cn1nc(C(F)F)nc1C(=O)N1CCc2[nH]cnc2C1c1cc2c(Cl)cccn2n1 (stereo in doubt) [Example 781, (R)-(4-(4-chloropyrazolo [1,5-a]pyridin-2-yl)-6,7-dihydro-1H-imidazo[4,5-c]pyridin-5(4H)-yl)(3-(difluoromethyl)-1-methyl-1H-1,2,4-triazol-5-yl)methanone] | – | –
27 | 500 to 1000 nM | Cn1cnc(-c2nnc(C(=O)N3CCc4[nH]cnc4C3c3cc4c(C(F)(F)F)cccn4n3)o2)c1 (stereo in doubt) [Example 934, (S)-(5-(1-methyl-1H-imidazol-4-yl)-1,3,4-oxadiazol-2-yl)(4-(4-(trifluoromethyl)pyrazolo[1,5-a]pyridin-2-yl)-6,7-dihydro-1H-imidazo [4,5-c]pyridin-5(4H)-yl)methanone] | – | –
28 | 500 to 1000 nM | CCOc1cccc2cc(C3c4nc[nH]c4CCN3C(=O)c3oc(C(C)(C)O)nc3C(F)F)nn12 (stereo in doubt) [Example 1245, (S)-(4-(difluoromethyl)-2-(2-hydroxypropan-2-yl)oxazol-5-yl)(4-(7-ethoxypyrazolo [1,5-a]pyridin-2-yl)-6,7-dihydro-1H-imidazo[4,5-c]pyridin-5(4H)-yl)methanone] | – | –
29 | – | O=C(c1cnc(-c2ccccn2)o1)N1CCc2[nH]cnc2C1c1cc2c(C(F)(F)F)cccn2n1 (stereo in doubt) [Example 2036, (S)-(2-(pyridin-2-yl)oxazol-5-yl)(4-(4-(trifluoromethyl)pyrazolo [1,5-a]pyridin-2-yl)-1,4,6,7-tetrahydro-5H-imidazo[4,5-c]pyridin-5-yl)methanone] | – | AC50 [3]: < 500 nM
30 | – | O=C(c1cnc(C2CC2)o1)N1CCc2[nH]cnc2C1c1cc2c(F)cccn2n1 (stereo in doubt) [Example 2098, (S)-(2-cyclopropyloxazol-5-yl)(4-(4-fluoropyrazolo[1,5-a]pyridin-2-yl)-1,4,6,7-tetrahydro-5H-imidazo[4,5-c]pyridin-5-yl)methanone] | – | AC50 [3]: < 500 nM
31 | – | CC(C)c1nnc(N2CCc3[nH]cnc3C2c2cc3c(F)cccn3n2)o1 (stereo in doubt) [Example 2323, (S)-2-(4-(4-fluoropyrazolo [1,5-a]pyridin-2-yl)-1,4,6,7-tetrahydro-5H-imidazo [4,5-c]pyridin-5-yl)-5-isopropyl-1,3,4-oxadiazole] | – | AC50 [3]: 500 to 1000 nM
32 | 1000 to 5000 nM | CC(F)(F)c1ncc(C(=O)N2CCc3[nH]cnc3[C@@H]2c2cc3ccccn3n2)s1 [Example 613, (R)-(2-(1,1-difluoroethyl)thiazol-5-yl)(4-(pyrazolo [1,5-a]pyridin-2-yl)-6,7-dihydro-1H-imidazo[4,5-c]pyridin-5(4H)-yl)methanone] | – | –
33 | 500 to 1000 nM | O=C(c1oc(-c2ccccn2)nc1C1CC1)N1CCc2[nH]cnc2[C@H]1c1cc2ccccn2n1 [Example 622, (S)-(4-cyclopropyl-2-(pyridin-2-yl)oxazol-5-yl)(4-(pyrazolo[1,5-a]pyridin-2-yl)-6,7-dihydro-1H-imidazo[4,5-c]pyridin-5(4H)-yl)methanone] | – | –
34 | < 500 nM | O=C(CC1CC(F)C1)N1CCc2[nH]cnc2[C@H]1c1cc2ccccn2n1 (stereo partly drawn) [Example 636, (S)-2-(3-fluorocyclobutyl)-1-(4-(pyrazolo[1,5-a]pyridin-2-yl)-6,7-dihydro-1H-imidazo [4,5-c]pyridin-5(4H)-yl)ethenone] | – | –
35 | 1000 to 5000 nM | O=C(CC1CC(F)C1)N1CCc2[nH]cnc2[C@@H]1c1cc2ccccn2n1 (stereo partly drawn) [Example 637, (R)-2-(3-fluorocyclobutyl)-1-(4-(pyrazolo[1,5-a]pyridin-2-yl)-6,7-dihydro-1H-imidazo [4,5-c]pyridin-5(4H)-yl)ethanone] | – | –
36 | 1000 to 5000 nM | Cc1cc(F)ccc1-c1nnc(C(=O)N2CCc3[nH]cnc3[C@@H]2c2cc3ccccn3n2)o1 [Example 655, (R)-(5-(4-fluoro-2-methylphenyl)-1,3,4-oxadiazol-2-yl)(4-(pyrazolo [1,5-a]pyridin-2-yl)-6,7-dihydro-1H-imidazo[4,5-c]pyridin-5(4H)-yl)methanone] | – | –
37 | 1000 to 5000 nM | Cn1ccc(-c2nnc(C(=O)N3CCc4[nH]cnc4[C@H]3c3cc4ccccn4n3)o2)n1 [Example 658, (S)-(5-(1-methyl-1H-pyrazol-3-yl)-1,3,4-oxadiazol-2-yl)(4-(pyrazolo[1,5-a]pyridin-2-yl)-6,7-dihydro-1H-imidazo[4,5-c]pyridin-5(4H)-yl)methanone] | – | –
38 | > 5000 nM | Cn1nc(Cl)cc1C(=O)N1CCc2[nH]cnc2[C@@H]1c1cc2ccccn2n1 [Example 681, (R)-(3-chloro-1-methyl-1H-pyrazol-5-yl)(4-(pyrazolo [1,5-a]pyridin-2-yl)-6,7-dihydro-1H-imidazo[4,5-c]pyridin-5(4H)-yl)methanone] | – | –

Row | SMILES | AC50 [2] | AC50 [1] | further results
39 | N#Cc1ncoc1C(=O)N1CCc2[nH]cnc2[C@@H]1c1cc2ccc(Cl)cn2n1 [Example 685, (R)-5-(4-(6-chloropyrazolo [1,5-a]pyridin-2-yl)-4,5,6,7-tetrahydro-1H-imidazo[4,5-c]pyridine-5-carbonyl) oxazole-4-carbonitrile] | > 5000 nM | – | –
